“Also recorded” adds a separate entry of the source. Residues, ends and D or L forms follow the SMILES beside them.
Legend:
[1] = molecular target: T1, frizzled-2 (rFzd-2) (Rattus norvegicus, UniProt Q08464); assay: Activity assay: luciferase reporter in HEK superTOPflash cells transfected with frizzled-2; format: cell-based
T1 construct: expressed in transfected cells; host or cells: HEK293 superTOPflash (transient, Fugene6, pcDNA3.1/hygro)
Protocol: Human embryonic kidney (HEK) cells were used for screening. These cells have a luciferase construct stably transfected into the genome (see FIG. 2A), such that when the frizzled receptor is activated and β-catenin is increased, the luciferase is activated by transcription and light can be measured.
The peptides were tested by transfecting the frizzled-1 or the frizzled-2 receptor and addition of UM206(S-S) to the cell culture. For testing antagonistic activity, UM206 was added and the natural ligand Wnt3a was added, which is a natural stimulus for the canonical pathway.
Day 2: Transfection 12-Well Plates • heat Fugene6 and DNA 15 minutes at RT • 2 ml serum-free medium in tube • add 3 μl fugene • add 2 μg DNA • incubate 30 minutes at RT • wash with PBS • add 50 μl transfectiemix • add 1 ml antibiotica-free medium
Day 3: Add Conditioned Medium or UM206
Day 4: Luciferase Activity Measurements • remove medium • wash with PBS • add 500 μl ⅕ lysisbuffer • shake for 60 minutes • centrifuge in tube • 20 μl lysaat and 50 μl luciferase in new tube for measurement • vortex • measure
(§1) Three areas of high homology that contained two cysteines are underlined (UM207), (UM208) and (UM206). In FIGS. 9B through 9D, the inhibitory effect of these three peptides on Wnt3a-induced luciferase activity in HEK293-superTOPflash is shown. […] Again, the peptides by themselves had no effect on the luciferase activity.
To determine the inhibitory constant of UM206-8, HEK293-superTOPflash cells were transfected with either rFzd-1 or -2 and incubated with Wnt3a (10^−9M) in the presence of increasing concentrations of either of the peptides (FIG. 15). For UM206, a biphasic inhibition curve was observed that was best fitted with a two-binding-state model.
The cell lines were cultured in 75 cm^2 culture flasks (Corning, Schiphol, the Netherlands) in Dulbeco's modified essential medium with L-glutamine (2 mM), 10% fetal calf serum (Invitrogen, Merelbeke, Belgium), and 1% gentamycin (Sigma-Aldrich, Zwijndrecht, The Netherlands). Before starting the experiment, the cell lines were treated with plasmocin 25 μg/ml (Invivogen, Toulose, France) and tested with a mycoalert mycoplasma detection kit (Lonza, Rockland Me., USA). Cells were transiently transfected with Fugene6 (Roche, Indianapolis Ind., USA) with plasmid DNA, pcDNA3.1/hygro (Invitrogen) with frizzled-1/2/4 or Wnts 3a-5a or with pcDNA3.0 (Invitrogen) containing the β-catenin or frizzled-5 sequence. After transfection, the cells were cultured for 24 hours in conditioned medium, collected from the cultured L-cells, L-cells with Wnt3a or 5a (Invitrogen). At the same moment the antagonist was added.

[2] = tested on: rFzd-1 or -2; assay: TOPflash experiments in CHO and COS-7 cells overexpressing rFzd-1 or -2; format: cell-based, rat
Source text: as §1
For the luciferase experiments not in HEK cells, the cells were additionally transfected with a TOPflash construct, eight TCF/LEF binding sites cloned into the pTA-Luc vector. Luciferase activity was measured using luciferase assay system (Promega, Madison Wis., USA).

[3] = tested on: C-FIT cells; assay: Differentiation assay (α-SMA, fibroblast to myofibroblast) in C-FIT cells; format: cell-based, rat
Source text: For this assay, we used the same C-FIT cells as for the migration assay to study a second component of wound healing, namely, differentiation of fibroblasts into myofibroblasts. When wound healing starts, cells called fibroblasts migrate into the scar. These cells have no contractile properties; however, they can differentiate into myofibroblasts, which can actively contract. To study which signals influence the transition from fibroblast into myofibroblasts, we treated the C-FIT cells and harvested them for mRNA isolation. Next, we tested them for the presence of specific markers for myofibroblasts by reverse transcription of the mRNA and subsequent quantitative PCR analysis, which are absent in fibroblasts. One of those markers is α-smooth muscle actin, which makes the cells contract.
RNA was isolated using the Trizol method (Invitrogen). For the RT-PCR, the RNA was transcribed to cDNA with Iscript™ cDNA synthesis kit (Bio-Rad, Hercules Calif., USA), Syber green (Eurogentec, Ghent, Belgium) was used for the detection of cDNA levels and cyclophilin served as the house keeping gene. In Supplementary methods panel 5, the primer sequences are shown.

[4] = tested on: myocardial infarction; assay: Echocardiography of mice after myocardial infarction; format: in vivo; conditions: UM206-treated group post-MI
Protocol: All animals were subjected to extensive echocardiography studies for the assessment of myocardial infarct size, LV cavity dimensions and ventricular function. Echocardiography examination was performed under 2% isofluorane. Echocardiograms were recorded with Philips Sonos 5500 ultrasound system (Philips, Eindhoven, the Netherlands) using a 20-MHz linear probe.

T1 sequence (Q08464 29-570): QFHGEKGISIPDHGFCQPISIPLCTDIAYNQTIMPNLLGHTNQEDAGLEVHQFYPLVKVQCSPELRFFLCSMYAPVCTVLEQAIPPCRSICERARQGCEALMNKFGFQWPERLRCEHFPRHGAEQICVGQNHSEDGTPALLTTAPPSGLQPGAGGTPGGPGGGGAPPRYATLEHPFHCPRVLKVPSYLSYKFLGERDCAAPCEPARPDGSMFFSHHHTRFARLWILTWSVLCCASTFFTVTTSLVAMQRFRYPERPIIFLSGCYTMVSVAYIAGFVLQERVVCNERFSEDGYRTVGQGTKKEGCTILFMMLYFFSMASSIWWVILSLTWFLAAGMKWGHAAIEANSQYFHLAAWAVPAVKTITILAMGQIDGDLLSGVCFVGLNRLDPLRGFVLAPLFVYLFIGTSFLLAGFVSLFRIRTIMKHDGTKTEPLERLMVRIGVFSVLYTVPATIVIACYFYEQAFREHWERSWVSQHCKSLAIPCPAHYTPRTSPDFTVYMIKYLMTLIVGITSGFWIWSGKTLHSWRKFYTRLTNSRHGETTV

## CSCC[C@H](NC(=O)CNC(=O)[C@H](CCC(=O)O)NC(=O)[C@H](CO)NC(=O)[C@@H](NC(=O)[C@H](CCCCN)NC(=O)[C@H](CC(N)=O)NC(=O)[C@H](CS)NC(C)=O)[C@@H](C)O)C(=O)N[C@@H](CC(=O)O)C(=O)NCC(=O)N[C@@H](CS)C(=O)N[C@@H](CCC(=O)O)C(=O)N[C@@H](CC(C)C)C(N)=O [UM206, Ac-Cys-Asn-Lys-Thr-Ser-Glu-Gly-Met-Asp-Gly-Cys-Glu-Leu-NH2] (Ac-CNKTSEGMDGCEL-NH2)
[1]
  selectivity frizzled-2 over frizzled-1: slightly more selective for frizzled-2 over frizzled-1
[1]; Wnt3a-induced luciferase activity, antagonists at 1.10^−9 M
  % of inhibition for Fzd-2: 75.06%
[1]; peptide 1.10^−8 M
  block of Wnt3a-induced luciferase activity, rFzd-2: blocked almost completely; also recorded: abolished the induction of luciferase activity almost completely
[2]
  inhibition of Wnt3a-induced TOPflash activation in CHO and COS-7 cells: can selectively block canonical Wnt/Fzd-1/2 signaling
[3]
  effect on Wnt3a/Wnt5a-induced differentiation, α-SMA levels: completely blocks this differentiation
[4]
  change of ejection fraction versus saline: doubling of the ejection fraction
  reduction in end diastolic volume of the left ventricle versus saline: 40%

Source: patent publication US20150071856A1, “ANTAGONISTIC PEPTIDES FOR FRIZZLED-1 AND FRIZZLED-2” (Universiteit Maastricht, priority 2013, published 2015)
